Measurements as given in patent publication US7989632B2, “Crystalline forms of solvated ilaprazole” (Il Yang Pharmaceutical Company, Ltd., priority 2006, dated 2011).

Tests used:
gastric acid = assay: Phase 1 clinical studies conducted with ilaprazole; format: in vivo, humans; conditions: Phase 1, at the doses studied
[1] = system: gastric-acid related disorders; acid-related gastric and duodenal ulcers; assay: Phase 2 clinical studies conducted with ilaprazole; format: in vivo, humans; conditions: at the doses studied
[2] = Dynamic Vapor Sorption/Desorption (DVS) isotherm; format: physicochemical; conditions: for DVS weight loss at 5% RH: samples not dried prior to analysis; for DVS weight loss from 95 to 5% RH: desorption
Method: Dynamic Vapor Sorption/Desorption (DVS): Data were collected on a VTI SGA-100 moisture balance system. For sorption isotherms, a sorption range of 5 to 95% relative humidity (RH) and a desorption range of 95 to 5% RH in 10% RH increments were used for analysis. The samples were not dried prior to analysis. Equilibrium criteria used for analysis were less than 0.0100% weight change in 5 minutes with a maximum equilibration time of 3 hours if the weight criterion was not met. Data were not corrected for the initial moisture content of the samples.

| SMILES | suppression of gastric acid (gastric acid) | healing of ulcers ([1]; Phase 2, acid-related gastric and duodenal ulcers) | symptomatic relief ([1]; Phase 2, patients with gastric-acid related disorders) | DVS weight loss at 5% RH [2] [%] | DVS weight loss from 95 to 5% RH [2] [%] | DVS weight loss from 5 to 95% RH ([2]; sorption, 5 to 95% RH) [%] | DVS weight gain from 5 to 95% RH ([2]; sorption, 5 to 95% RH) [%] |
| --- | --- | --- | --- | --- | --- | --- | --- |
| COc1ccnc(C[S+]([O-])c2nc3cc(-n4cccc4)ccc3[nH]2)c1C (stereo not drawn) [ilaprazole, 2[[(4-methoxy-3-methyl-2-pyridinyl)-methyl]sulfinyl]-5-(1H-pyrrol-1-yl) 1H-Benzimidazole] | suppression of gastric acid occurs over a 24-hour period | promoted rapid healing | provided symptomatic relief |  |  |  |  |
| C1COCCO1.COc1ccnc(C[S+]([O-])c2nc3cc(-n4cccc4)ccc3[nH]2)c1C.COc1ccnc(C[S+]([O-])c2nc3cc(-n4cccc4)ccc3[nH]2)c1C (racemic) [Form C, crystalline 1,4-dioxane/racemic ilaprazole hemi-solvate] |  |  |  | ~1.2 | ~4.1 | ~1.1 |  |
| C1CCOC1.COc1ccnc(C[S+]([O-])c2nc3cc(-n4cccc4)ccc3[nH]2)c1C.COc1ccnc(C[S+]([O-])c2nc3cc(-n4cccc4)ccc3[nH]2)c1C (racemic) [Form D, crystalline THF/racemic ilaprazole hemisolvate] |  |  |  | ~0.6 | ~1.2 |  | ~0.6 |
